Literature values in patent publication US20250031694A1, “AGRICULTURAL CHEMICAL COMPOSITION AND METHOD FOR PRODUCING SAME” (MITSUI CHEMICALS CROP & LIFE SOLUTIONS, INC., priority 2021, published 2025).
≈ marks a conversion by molar mass, not a printed value.

Conditions: FAMIC agrochemical abstract

SMILES: CCCOCCN(C(=O)CCl)c1c(CC)cccc1CC [pretilachlor]
- water solubility (25° C.): 74 mg/L (≈ 237 µM)

SMILES: CC(=O)Oc1c(C)c(C)nc2c(F)cc(C(C)(C)C)cc12 [tebufloquin]
- water solubility (20° C.): 20.2 mg/L (≈ 69.8 µM)

SMILES: CN1COCN(Cc2cnc(Cl)s2)/C1=N\[N+](=O)[O-] [thiamethoxam]
- water solubility (25° C.): 4100 mg/L (≈ 14100 µM)

SMILES: C=CCOC1=NS(=O)(=O)c2ccccc21 [probenazole]
- water solubility (20° C.): 36.6 mg/L (≈ 164 µM)
